Patent US4209529A, “Farnesyl carboxylic acid α-bisabolol ester, a mucosal stabilizing composition and method of manufacturing the same” (Kotobuki Seiyaku Company Limited, priority 1977, dated 1980)

Key:
5-HT induced ulcer = experiment: 5-HT induced ulcer; type: in vivo, rat
Description: In the following experiments, the effects of test drugs on 5-HT induced ulcer were investigated. To induce the gastric lesion, rats were fasted for 24 hours before injection of 5-HT 30 mg./kg. S.C. The animals were sacrificed after 20 hours of 5-HT injections, and examined for lesion. The dose and route of administration of test drugs are the same as experiment 3. In the experiment, the area of lesions (mm.^2) were measured as the ulcer-index.

aspirin ulcer = experiment: Aspirin-induced gastric mucosal lesion (aspirin ulcer); type: in vivo; settings: aspirin 100 mg./kg. per os
Description: (§1) Each drug in Table 5, suspended with TWEEN 80 and 1% CMC solution, was given either intraduodenally immediately after pylorus ligation (aspirin ulcer) or orally (indomethacin ulcer) at the volume of 0.5 ml./100 g. Aspirin was given orally 10 min. after pylorus ligation. Indomethacin was given orally 10 min. after drug administration. All animals were sacrificed 7 hrs. after operation.

[1] = LD50 by the up and down method; type: in vivo; settings: mouse, in vivo, po; per os; observations for 24 hours
Description: (§2) The LD50 value of the present compound in ddY strain mice was determined by the up and down method, with observations carried out for 24 hours.
(§3) The test drugs used in this experiment were suspended in 1% methyl cellulose and were given orally.

ddY strain mice = experiment: LD50 by the up and down method; type: in vivo; settings: per os; ratio of LD50
Description: as §2, §3

stress ulcer = experiment: Stress ulcer; type: in vivo, rat (male Wistar strain); settings: 100 mg./kg. per os, 30 minutes before the stress; 18 hours stress
Description: To study the anti-ulcerative actions of the test drugs in experimental animals, the stress ulcer was selected. Male rats of the Wistar strain, weighing 200-250 g. were subjected to stress according to Takagi et. al. (Chem. Pharm. Bull 12,465. 1964). The four test drugs, the present compound (III), α-bisabolol (I), farnesyl carboxylic acid (II) and gefarnate were suspended in 1% methyl cellulose and were administered to the rats in a dose of 100 mg./kg. body weight per os, 30 minutes before the stress. The animals were placed in the stress box and immersed in water bath of 20°-25° C. to the level of the xiphoid process for 18 hours.
At the end of the stress the animals were removed from the stress box, killed by a blow on the head, and the stomach removed. The stomach was filled with 1% formalin solution, placed in 1% formalin solution for 15 minutes and was then cut open along the greater curvature and examined for lesions to obtain the ulcer index. The ulcer index was determined in six grades (0-5; 5 implying perforation of stomach).

[2] = tested on: carrageenin-induced rat paw edema; experiment: Carrageenin-induced rat paw edema; type: in vivo, rat (Wistar); settings: 300 mg./kg. per os
Description: To study the effect of the present compound on carrageenin-induced rat paw edema, the method of C. A. Winter (J. Pharmacol 141,369, (1963)) was applied. Wistar rats, weighing about 140 g. were used.
The present compound (III), α-bisabolol and farnesyl carboxylic acid were administered at a dosage of 300 mg./kg. (per os.) using a 1% CMC solution as the vehicle. The % inhibition was calculated as follows: [formula]

gastric epithelial cell = experiment: N-acetyl neuromatic acid (NANA) in gastric juice of pylorus-ligated rats (gastric epithelial cell stabilizing effect); type: in vivo, rat (male Donryu strain); design: unit not given here; settings: 200 mg./kg. orally, three times a day for 5 days, and after pylorus ligation, 8 h ligation
Description: (§4) Male Donryu strain rats, weighing about 200 g., were divided into five groups. […] On the fifth day the animals were fasted for 24 hours, and submitted to pylorus ligation under light ether anethesia.
(§5) The drugs were given just after pylorus ligation orally. After 8 hours of ligation, the rats were sacrificed and gastric juice was collected.

indomethacin ulcer = experiment: Indomethacin-induced gastric mucosal lesion (indomethacin ulcer); type: in vivo; settings: 300 mg./kg. orally; indomethacin 20 mg./kg. per os
Description: The preventive activity of new compound (III) against the formation of gastric mucosal lesion induced by the gastric ulcerogenic, anti-inflammatory drugs, indomethacin and aspirin was evaluated according to Okabe et. al. (Jap. J. Pharmacol. 24 169 p. 1974, Amer. J. Dig. Dis. 20 626 1975).
as §1

Chemical stability = type: physicochemical
[3] = Other pharmacological experiment (mucosal stabilizing, anti-inflammative, wound-healing); settings: another experiment, no data shown
gastric mucosa = experiment: Gastric errosion induced by 8 hours of pylorus ligation; type: in vivo, rat (male Donryu strain); settings: 200 mg./kg. orally
Description: as §4, §5

[4] = cited from earlier work; for sedative or depressive activities: Ann. Pharm. France, 33, 229 ('75); for anti-inflammative and anti-ulcerative activities: literature

Row | Compound | Inhibition (aspirin ulcer; 100 mg./kg. intraduodenally) [%] | Ulcer Index, means ± s.e. (aspirin ulcer; 100 mg./kg. intraduodenally) [mm.^2] | Inhibition (aspirin ulcer; 300 mg./kg. intraduodenally) [%] | Ulcer Index, means ± s.e. (aspirin ulcer; 300 mg./kg. intraduodenally) [mm.^2] | Inhibition (aspirin ulcer; 1000 mg./kg. intraduodenally) [%] | Ulcer Index, means ± s.e. (aspirin ulcer; 1000 mg./kg. intraduodenally) [mm.^2] | LD50 at 24 h [1] [mg/kg] | score (ulcer index, grades 0-5) (stress ulcer) | Increase in % of paw edema [2] [%] | Maximum % Inhibition [2] [%] | increased rate of paw-edema (fraction) [2] | Amounts of NANA, bond (gastric epithelial cell) | Amounts of NANA, free (gastric epithelial cell) | Amounts of NANA, total (gastric epithelial cell) | sedative or depressive activities [4] | anti-inflammative and anti-ulcerative activities [4] | other results
1 | CC(C)=CCCC(C)=CCCC(C)=CCC(=O)OC(C)(CCC=C(C)C)C1CC=C(C)CC1 (stereo not shown) [Compound (III), 4,8,12-1,5-dimethyl-1-(4-methyl-3-cyclohexenyl)-4-hexenyl ester of 4,8,12-trimethyl-3,7,11-tridecatrienoic acid] | 29.8 | 21.4 ± 4.4 | 44.6 | 16.9 ± 3.6 | 65.2 | 10.6 ± 2.2 | 24.1 | 1.5 ± 0.50 | 60.4 | 39.6 | 0.604 | 71.8 | 16.2 | 88.9 | – | – | inhibition of the occurrence of lesions (5-HT induced ulcer; 100 mg./kg.): inhibits the occurrence of lesions completely; Ulcer Index (area of lesions) (5-HT induced ulcer; 100 mg./kg. per os, 5-HT 30 mg./kg. S.C., 20 hours): 0 mm.^2; toxicity, times less than that of α-bisabolol and farnesyl carboxylic acid (ddY strain mice): 6-7 times; Inhibition (indomethacin ulcer): 42.6%; Ulcer Index, means ± s.e. (indomethacin ulcer): 26.4 ± 5.4 mm.^2; chemical stability (Chemical stability): chemically stable; mucosal stabilizing, anti-inflammative and wound-healing activities [3]: possess mucosal stabilizing anti-inflammative, and wound-healing activities; damage to the gastric mucosa (gastric errosion) (gastric mucosa): did not produce any damage to the gastric mucosa
2 | CC(C)=CCCC(C)=CCCC(C)=CCC(=O)O [Farnesyl carboxylic acid, 4,8,12-trimethyl-3,7,11-tridecatrienoic acid] | – | – | – | – | – | – | 4.26 | 2.33 ± 0.84 | 76.7 | 23.3 | 0.767 | 80.6 | 18.3 | 98.6 | – | – | –
3 | CC(C)=CCC/C(C)=C/CC/C(C)=C/CCC(=O)OC/C=C(\C)CCC=C(C)C [Gefarnate] | 22.3 | 23.7 ± 3.2 | 49.9 | 16.2 ± 2.9 | 49.5 | 15.4 ± 4.4 | – | 3.83 ± 0.73 | – | – | – | 72.8 | 20.8 | 93.6 | – | – | –
4 | C=CC(C)=CCC=C(C)CCC=C(C)C [farnesene] | – | – | – | – | – | – | – | – | – | – | – | – | – | – | sedative or depressive activities | anti-inflammative and anti-ulcerative activities | –
5 | CC(C)=CCCC(C)(O)C1CC=C(C)CC1 (stereo not drawn) [α-Bisabolol, α-bisabolol] | – | – | – | – | – | – | 3.67 | 4.0 ± 0.25 | 88.1 | 11.9 | 0.881 | 136.3 | 12.4 | 148.7 | sedative or depressive activities | anti-inflammative and anti-ulcerative activities | –
